How the values were obtained:
Assay type in all cases: cell-based
[1] = tested on: Bovine articular cartilage explants; experiment: G2 release into supernatants of bovine articular cartilage explants (F78 sandwich assay); conditions: FIG. 5; for release of G2 on cytokine stimulation: OSM and TNF-α together, decreases after day 5, background after day 12
Procedure: A sandwich assay was developed using monoclonal antibodies as described above. Streptavidin plates were incubated for 1 hour, 300 RPM, 20° C. with 100 μl 600 ng/ml biotinylated F78 monoclonal antibody against the G2 domain of aggrecan.
After incubating the plates for 1 hour, plates were washed 5 times with washing buffer (0.15 mol/l NaCl, 0.05% (v/v) Tween 20). Subsequently 100 μl standards (purified bovine aggrecan 0.05 ng/ml-10 ng/ml, or pre-diluted explant supernatants in PBS-BTB were added, and the plates were incubated for 1 hour, 300 RPM, 20° C. After the incubation period, the plates were washed 5 times as described previously, and 500 ng/ml horseradish Peroxidase (POD)-labelled F78 antibody was added. After incubating for 1 hour, 300 RPM, 20° C., the plate was washed 5 times, and 100 μl of TMB substrate was added, and the plate was incubated for 15 minutes, 300 RPM, 20° C. in the dark before 150 μl 0.18 M H2SO4 was added. The absorbance was measured immediately at 450 nm.
(§1) The G2 and the ^342FFGVG-G2 test described above were evaluated using conditioned medium from cartilage explants. Bovine articular cartilage was obtained from heifer stifle joints. Pieces of cartilage (16±4 mg) were placed in 96 well plates and incubated at 37° C. with 5% CO2 and shaking (50 rpm). Serum-free D-MEM medium with or without the cytokines oncostatin M and tumour necrosis factor α (TNFα) or the MMP inhibitor GM6001 was used. As negative control, cartilage was placed in chryo-tubes, frozen in liquid N2, and thawed at 37° C. in water-bath for three repeated freeze-thaw cycles. The explants culture medium was replaced every 3rd day, and supernatants were stored at −20° C. until further analysis.

[2] = tested on: Bovine articular cartilage explants; experiment: ^342FFGVG-G2 release into supernatants of bovine articular cartilage explants (AF-28/F78 sandwich assay); conditions: FIG. 5; for release of ^342FFGVG-G2 on cytokine stimulation: OSM and TNF-α together, after day 12
Procedure: Streptavidin plates were incubated for 1 hour, 300 RPM, 20° C. with 100 μl 1500 ng/ml biotinylated AF-28 monoclonal antibody against the epitope ^342FFGVG-G2. Antibody dilutions were made in PBS-BTB buffer. After incubating the plates for 1 hour, plates were washed 5 times with washing buffer (0.15 mol/l NaCl, 0.05% (v/v) Tween 20). Subsequently 50 μl standards (MMP-13 digested purified porcine aggrecan 47-3000 ng/ml or pre-diluted explant supernatants in PBS-BTB were added, and the plates were incubated for 1 hour, 300 RPM, 20° C. After the incubation period, the plates were washed 5 times as described previously, and 500 ng/ml horseradish Peroxidase (POD)-labelled F78 antibody was added. After incubating for 1 hour, 300 RPM, 20° C., the plates were washed 5 times, 100 μl of TMB substrate was added, and the plates were incubated for 15 minutes, 300 RPM, 20° C. in the dark before 150 μl 0.18 M H2SO4 was added. The absorbance was measured immediately after at 450 nm.
as §1

[3] = tested on: Bovine articular cartilage explants; experiment: CS846 release into supernatants of bovine articular cartilage explants (IBEX CS846 competitive ELISA kit); conditions: FIG. 6; for release of CS846 on cytokine stimulation: OSM and TNFα together
Procedure: as §1
The supernatants evaluated above was also measured for CS846 (IBEX CS846 competitive ELISA kit).

Q: With tumour necrosis factor α [TNF-α] as the molecule, how does the “release of G2 on cytokine stimulation” value [1] read?
A: initial elevation

Q: And the “release of ^342FFGVG-G2 on cytokine stimulation” value [2]?
A: stimulate an increase

Q: And the “release of CS846 on cytokine stimulation” value [3]?
A: do not stimulate release

Q: With `CNC(=O)[C@H](Cc1c[nH]c2ccccc12)NC(=O)[C@@H](CC(=O)NO)CC(C)C` [GM6001] as the molecule, how does the “release of G2 on addition of the MMP inhibitor” value ([1]; explants treated with OSM and TNF-α plus GM6001) read?
A: did not inhibit

Q: What about the “release of ^342FFGVG-G2 in the presence of the MMP inhibitor” value ([2]; explants treated with OSM and TNF-α concomitantly with GM6001) of the same molecule?
A: completely abrogated

Q: What about the “CS846 release during inhibition of MMP activity” value ([3]; explants with GM6001) of the same molecule?
A: strong, initial elevation

B1: oncostatin M (protein, UniProt P13725 26-221, looked up)
Oncostatin-M: AAIGSCSKEYRVLLGQLQKQTDLMQDTSRLLDPYIRIQGLDVPKLREHCRERPGAFPSEETLRGLGRRGFLQTLNATLGCVLHRLADLEQRLPKAQDLERSGLNIEDLEKLQMARPNILGLRNNIYCMAQLLDNSDTAEPTKAGRGASQPPTPTPASDAFQRKLEGCRFLHGYHRFMHSVGRVFSKWGESPNRSRR
notes: cytokine oncostatin M used to stimulate cartilage explants
Q: How did the “release of G2 on cytokine stimulation” value [1] turn out when B1 was run?
A: initial elevation

Q: What about the “release of ^342FFGVG-G2 on cytokine stimulation” value [2] of the same molecule?
A: stimulate an increase

Q: What about the “release of CS846 on cytokine stimulation” value [3] of the same molecule?
A: do not stimulate release

Source: US20090291462A1, “Detection or Quantification of Aggrecan and its Fragments” (Immunodiagnostic Systems Nordic A/S, priority 2005, published 2009)
